Active and inactive are the calls of the source.
What was measured:
[1] = NIH-3T3 fibroblast cytotoxicity, dose response, cytotoxicity control, cell-based, fluorescence, Alamar Blue, secondary assay (AID 2327); type: functional;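 further: NIH-3T3 mouse fibroblasts cultured with fluconazole at 8 µg/mL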
[2] = test system: Streptococcus sp. 'group A'; assay: growth inhibition of control SK(-) GAS strain, dose response, counter-screen for streptokinase expression inhibitor project, luminescence, kanamycin, BacTiterGlo, confirmation (AID 1900); type: functional, organism-based
[3] = cells; type: functional, cell-based
[4] = target: T1, Streptokinase A (Streptococcus pyogenes serotype M1, UniProt P10520); assay: S. pyogenes streptokinase expression inhibitors, potency, dose response, plasminogen activation absorbance, OD405 (AID 1914); type: functional, Streptococcus pyogenes M1 GAS;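 further: secreted streptokinase activity via plasminogen activation per viability signal from cell pellet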
T1 sequence (P10520 whole entry): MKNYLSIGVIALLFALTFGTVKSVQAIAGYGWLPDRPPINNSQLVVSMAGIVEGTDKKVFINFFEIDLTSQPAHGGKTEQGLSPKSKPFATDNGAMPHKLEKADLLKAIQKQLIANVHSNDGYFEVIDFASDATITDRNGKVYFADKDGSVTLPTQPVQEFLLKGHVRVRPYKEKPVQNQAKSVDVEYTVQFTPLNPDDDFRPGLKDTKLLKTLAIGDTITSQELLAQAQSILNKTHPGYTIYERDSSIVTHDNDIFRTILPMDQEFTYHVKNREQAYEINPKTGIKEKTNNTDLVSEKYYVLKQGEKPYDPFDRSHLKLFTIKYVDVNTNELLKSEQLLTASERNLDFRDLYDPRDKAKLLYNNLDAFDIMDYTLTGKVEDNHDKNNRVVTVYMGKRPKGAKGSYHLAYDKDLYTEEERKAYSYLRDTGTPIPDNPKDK

[5] = C. albicans growth with fluconazole, confirmation, fluorescence, retest (AID 2467); type: functional, cell-based
[6] = inhibitors of intracellular T. cruzi replication, confirmation, NIH3T3 host cells, beta-gal luminescence (AID 2044); type: functional, cell-based;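 further: intracellular parasites grown in NIH/3T3 mouse fibroblasts as host cells; luminescent beta-galactosidase reporter signal from transgenic T. cruzi replicating inside host cells; inhibitors lower the luminescence signal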
[7] = Luminescence-based dose response cell-based high throughput screening assay for cytotoxic compounds using the IEC-6 intestinal epithelial cell line. [Related pubchem assays: 1858 (Summary AID.), 1825 (Counterscreen.), 1907 (Confirmation screen.)]; type: functional
[8] = cells; type: functional, cell-based; remark: listed apart in the source
[9] = target: T2, Serine/threonine-protein phosphatase (Candida dubliniensis (strain CD36 / CBS 7987 / NCPF 3949 / NRRLY-17841) (Yeast), UniProt B9W6M3); assay: calcineurin pathway inhibitors in yeast reporter, dose response, S. cerevisiae, CDRE-lacZ, luminescence, secondary (AID 2388); type: functional, cell-based;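 further: yeast reporter cells carrying a calcineurin-responsive lacZ construct stimulated with calcium chloride; luminescent beta-galactosidase reporter signal in whole cells rather than isolated phosphatase activity; potency for inhibition where a drop in reporter signal means calcineurin blockade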
T2 sequence (B9W6M3 whole entry): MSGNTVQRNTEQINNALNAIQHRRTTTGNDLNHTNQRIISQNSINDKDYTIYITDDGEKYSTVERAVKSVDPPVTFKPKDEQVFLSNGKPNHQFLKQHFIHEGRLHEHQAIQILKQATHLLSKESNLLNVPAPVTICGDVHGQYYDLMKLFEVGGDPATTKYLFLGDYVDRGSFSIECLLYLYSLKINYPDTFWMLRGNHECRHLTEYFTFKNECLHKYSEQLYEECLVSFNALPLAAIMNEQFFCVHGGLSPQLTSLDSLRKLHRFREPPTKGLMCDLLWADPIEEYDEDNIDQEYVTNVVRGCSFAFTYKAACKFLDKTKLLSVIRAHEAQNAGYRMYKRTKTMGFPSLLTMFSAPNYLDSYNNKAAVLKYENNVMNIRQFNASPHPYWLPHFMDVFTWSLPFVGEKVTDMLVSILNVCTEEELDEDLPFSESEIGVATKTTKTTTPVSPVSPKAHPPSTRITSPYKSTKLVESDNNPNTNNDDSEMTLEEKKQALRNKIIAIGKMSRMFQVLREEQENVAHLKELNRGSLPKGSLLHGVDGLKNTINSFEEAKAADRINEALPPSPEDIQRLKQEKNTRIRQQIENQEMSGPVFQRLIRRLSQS

[10] = cytotoxicity toward NIH3T3 fibroblasts, dose response, counter-screen, cell-based, ATP luminescence, mouse fibroblasts (AID 2010); type: functional;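 further: cells exposed to compound for about 90 hours before reading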
[11] = test system: Streptococcus; assay: Group A Streptococcus viability loss, dose response, counter-screen for streptokinase expression inhibitor project, luminescence, BacTiterGlo (AID 1915); type: functional, organism-based;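 further: potency for reduction of bacterial viability or growth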
[12] = target: Exodeoxyribonuclease V (Escherichia coli (strain K12), UniProt P04993+P07648+P08394); assay: E. coli RecBCD inhibitors, dose response, counter-screen for AddAB inhibitor project, absorbance, V66 E. coli, mutant T4 phage (AID 492957); type: functional, cell-based, Escherichia coli str. K-12 substr. MG1655
[13] = cytotoxicity in HEK-293T cells, dose response, cytotoxicity control for TCR NF-kB inhibitor project, luminescence, T-cell screen hits (AID 489026); type: functional, cell-based;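 further: cells exposed to compound about 14 hours before the viability readout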
[14] = Counterscreen for AddAB inhibitors: absorbance-based bacterial cell-based high throughput dose response assay for inhibitors of bacterial viability. [Related pubchem assays (depositor defined):AID435030, AID449728, AID449731, AID488942, AID488955, AID488956]; type: functional
[15] = test system: HEK293; assay: inhibitors of LMP1-driven NF-kB reporter, dose response, cell-based, HEK293, luciferase, cherry-pick (AID 588343); type: functional; conditions: Homo sapiens
[16] = target: Heat shock protein HSP 90-alpha (Homo sapiens, UniProt P07900); type: functional, organism-based
[17] = test system: HEK293; assay: cytotoxicity in HEK293T NF-kB-Luc cells, SAR follow-up, cytotoxicity control for NF-kB activator project, cell-based, resazurin fluorescence (AID 493251); type: functional
[18] = test system: Jurkat; assay: SAR Analysis of small molecule inhibitors of T-cell specific antigen receptor-induced NF-kB activation in a Jurkat cell line using a luminescence assay - Set 2. [Related pubchem assays (depositor defined):AID435003, AID435012, AID465]; type: functional, cell-based; conditions: Homo sapiens
[19] = test system: Jurkat; assay: SAR Analysis of small molecule inhibitors of T-cell specific antigen receptor-induced NF-kB activation in a Jurkat cell line using a luminescence assay. [Related pubchem assays (depositor defined):AID435003, AID435012, AID465]; type: functional, cell-based; conditions: Homo sapiens
[20] = test system: HEK293; assay: SAR Analysis of small molecule inhibitors of T-cell specific antigen receptor-induced NF-kB activation in a HEK-293T cell line using a luminescence assay - Set 2. [Related pubchem assays (depositor defined):AID435003, AID435012, AID489026]; type: functional, cell-based; conditions: Homo sapiens
[21] = test system: INS1; assay: beta cell apoptosis inhibitors, cytokine rescue, dose response, luminescence, retest (AID 449756); type: functional, cell-based; conditions: Rattus norvegicus;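 further: cell death triggered by IL-1 beta plus TNF-alpha plus IFN-gamma mixture; protective hits raise ATP signal compared with cytokine alone wells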
[22] = test system: HEK293; assay: SAR Analysis of small molecule inhibitors of T-cell specific antigen receptor-induced NF-kB activation in a HEK-293T cell line using a luminescence assay. [Related pubchem assays (depositor defined):AID435003, AID435012, AID489026]; type: functional, cell-based; conditions: Homo sapiens
[23] = target: ATP-dependent molecular chaperone HSP82 (Candida albicans (strain WO-1) (Yeast), UniProt C4YTQ8); assay: loss of DOC-induced GRE-beta-galactosidase reporter signal, dose response, Hsp90 inhibitor project, S. cerevisiae, luminescence (AID 2400); type: functional, cell-based;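 further: beta-galactosidase luminescence from glucocorticoid response element reporter as proxy for Hsp90 function; inhibitor potency where signal loss means Hsp90 inhibition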
Sequence of ATP-dependent molecular chaperone HSP82 (C4YTQ8 whole entry): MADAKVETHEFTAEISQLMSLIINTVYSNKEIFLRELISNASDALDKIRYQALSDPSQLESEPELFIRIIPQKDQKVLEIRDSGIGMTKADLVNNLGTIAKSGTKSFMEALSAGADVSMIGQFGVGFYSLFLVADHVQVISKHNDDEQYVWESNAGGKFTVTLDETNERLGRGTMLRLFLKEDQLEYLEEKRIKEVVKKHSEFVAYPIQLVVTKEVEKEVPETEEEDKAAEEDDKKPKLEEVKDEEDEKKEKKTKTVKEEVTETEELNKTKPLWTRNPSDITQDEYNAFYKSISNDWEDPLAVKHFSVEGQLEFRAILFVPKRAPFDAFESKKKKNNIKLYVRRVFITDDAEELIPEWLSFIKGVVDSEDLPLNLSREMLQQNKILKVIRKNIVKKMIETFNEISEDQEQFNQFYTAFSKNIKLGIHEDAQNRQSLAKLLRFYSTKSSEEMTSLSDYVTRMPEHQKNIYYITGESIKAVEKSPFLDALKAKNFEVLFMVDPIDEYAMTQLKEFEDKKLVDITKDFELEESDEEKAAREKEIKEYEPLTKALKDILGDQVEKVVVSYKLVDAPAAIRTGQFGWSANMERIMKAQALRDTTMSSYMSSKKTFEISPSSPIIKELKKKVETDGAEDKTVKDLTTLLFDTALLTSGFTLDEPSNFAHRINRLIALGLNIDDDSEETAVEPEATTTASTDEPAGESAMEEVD

[24] = target: Ephrin type-A receptor 4 (Mus musculus, UniProt Q03137); assay: inhibitors of EphA4 binding to KYL peptide, primary screen, biochemical, colorimetric, mouse EphA4 (AID 689); type: functional
Sequence of Ephrin type-A receptor 4 (Q03137 whole entry): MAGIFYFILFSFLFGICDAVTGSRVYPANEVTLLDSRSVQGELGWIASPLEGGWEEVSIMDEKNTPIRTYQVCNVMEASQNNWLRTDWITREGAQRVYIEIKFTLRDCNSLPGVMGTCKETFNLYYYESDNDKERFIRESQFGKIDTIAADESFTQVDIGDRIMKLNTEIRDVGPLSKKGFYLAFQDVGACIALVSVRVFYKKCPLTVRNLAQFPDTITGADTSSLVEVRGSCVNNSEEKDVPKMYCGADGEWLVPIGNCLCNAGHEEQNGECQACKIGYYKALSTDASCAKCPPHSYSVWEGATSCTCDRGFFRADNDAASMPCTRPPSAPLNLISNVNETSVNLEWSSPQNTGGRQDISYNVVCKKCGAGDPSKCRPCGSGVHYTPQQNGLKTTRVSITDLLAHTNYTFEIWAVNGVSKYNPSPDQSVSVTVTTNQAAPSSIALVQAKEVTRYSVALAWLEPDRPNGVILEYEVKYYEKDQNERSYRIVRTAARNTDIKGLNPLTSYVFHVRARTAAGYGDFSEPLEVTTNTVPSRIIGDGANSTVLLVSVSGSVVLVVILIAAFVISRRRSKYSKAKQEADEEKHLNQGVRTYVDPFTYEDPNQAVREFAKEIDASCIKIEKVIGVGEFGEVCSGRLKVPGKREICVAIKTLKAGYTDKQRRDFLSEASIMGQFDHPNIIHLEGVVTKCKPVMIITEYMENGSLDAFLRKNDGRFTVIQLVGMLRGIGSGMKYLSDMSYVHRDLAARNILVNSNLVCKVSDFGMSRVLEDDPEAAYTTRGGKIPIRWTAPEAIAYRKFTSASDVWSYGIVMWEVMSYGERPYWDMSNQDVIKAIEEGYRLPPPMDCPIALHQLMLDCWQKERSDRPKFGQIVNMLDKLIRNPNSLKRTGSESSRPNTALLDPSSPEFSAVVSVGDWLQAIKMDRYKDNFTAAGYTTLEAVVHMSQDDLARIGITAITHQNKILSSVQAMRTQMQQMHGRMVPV

[25] = test system: HeLa; assay: HeLa cell cytotoxicity, dose response, cytotoxicity control, 24 h, cherry-picked samples (AID 504726); type: functional, cell-based; conditions: Homo sapiens;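 further: potency for cytotoxicity as loss of luminescence signal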
[26] = target: ORF 73 (Human herpesvirus 8, UniProt O40947); assay: inhibitors of C-LANA binding to LBS DNA, dose response, biochemical, fluorescence polarization, cherry-picked samples (AID 504725); design: species or system Human gammaherpesvirus 8;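 further: fluorescence polarization of a labeled DNA duplex reporting LANA DNA binding; potency is for inhibitors that block LANA binding to the DNA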
Sequence of ORF 73 (O40947 whole entry): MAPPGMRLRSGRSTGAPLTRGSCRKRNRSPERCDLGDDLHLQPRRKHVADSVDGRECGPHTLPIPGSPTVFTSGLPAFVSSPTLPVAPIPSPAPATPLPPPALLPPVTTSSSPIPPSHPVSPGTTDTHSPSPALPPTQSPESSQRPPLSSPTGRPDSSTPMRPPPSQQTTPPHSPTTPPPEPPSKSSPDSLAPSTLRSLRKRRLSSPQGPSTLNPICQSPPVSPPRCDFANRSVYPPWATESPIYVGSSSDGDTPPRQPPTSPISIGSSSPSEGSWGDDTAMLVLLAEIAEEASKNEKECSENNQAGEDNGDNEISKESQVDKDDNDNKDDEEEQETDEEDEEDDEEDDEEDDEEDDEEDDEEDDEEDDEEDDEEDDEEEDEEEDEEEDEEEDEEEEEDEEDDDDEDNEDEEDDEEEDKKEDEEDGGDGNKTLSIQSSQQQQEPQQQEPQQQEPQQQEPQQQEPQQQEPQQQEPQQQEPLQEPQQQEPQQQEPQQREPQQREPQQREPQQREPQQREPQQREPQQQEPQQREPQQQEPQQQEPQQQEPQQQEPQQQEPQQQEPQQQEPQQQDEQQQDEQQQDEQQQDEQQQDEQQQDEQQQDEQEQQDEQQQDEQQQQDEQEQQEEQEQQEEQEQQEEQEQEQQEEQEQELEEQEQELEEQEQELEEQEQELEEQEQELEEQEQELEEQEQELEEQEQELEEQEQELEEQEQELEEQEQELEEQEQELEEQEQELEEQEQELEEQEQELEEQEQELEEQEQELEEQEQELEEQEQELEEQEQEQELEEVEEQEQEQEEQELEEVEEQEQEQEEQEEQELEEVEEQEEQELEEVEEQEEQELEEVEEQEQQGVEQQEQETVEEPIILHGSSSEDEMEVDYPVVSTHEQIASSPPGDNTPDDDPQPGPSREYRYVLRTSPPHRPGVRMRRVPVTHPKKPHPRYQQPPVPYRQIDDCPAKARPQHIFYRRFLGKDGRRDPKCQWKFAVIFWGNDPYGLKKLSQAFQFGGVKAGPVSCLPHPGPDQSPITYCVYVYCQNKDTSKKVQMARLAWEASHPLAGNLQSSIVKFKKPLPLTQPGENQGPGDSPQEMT

[27] = target: Troponin, cardiac muscle (Homo sapiens, UniProt P19429+P45379+P63316); assay: Fluorescence-based biochemical high throughput dose response assay for activators of the calcium sensitivity of cardiac Regulated Thin Filaments (RTF). [Related pubchem assays (depositor defined):AID493008, AID493018, AID504382, AID504383]; type: protein-complex assay
[28] = test system: CHO; assay: cytotoxicity in TLR9-MyD88 CHO cells, dose response, cytotoxicity control for TLR9-MyD88 binding inhibitor project, cell-based, luminescence (AID 588339); type: functional, hamster; conditions: Cricetulus griseus;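 further: CHO cells stably coexpressing TLR9 and MyD88 fusions from primary screen; compound exposure lasted 48 hours before viability readout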
[29] = target: T3, Endoribonuclease toxin MazF (Escherichia coli K-12, UniProt P0AE70); assay: MazF toxin RNase activators, dose response, biochemical, fluorescence, single-stranded RNA substrate, uHTS hits (AID 588481); type: functional
T3 sequence (P0AE70 whole entry): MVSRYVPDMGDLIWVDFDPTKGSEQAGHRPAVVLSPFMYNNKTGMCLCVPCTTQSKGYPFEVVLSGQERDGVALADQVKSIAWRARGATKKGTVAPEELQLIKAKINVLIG

[30] = target: Keap1/Nrf2 (Homo sapiens, UniProt Q14145); assay: Keap1-Nrf2 protein-protein interaction inhibitors, dose response, biochemical, fluorescence polarization, cherry-picked samples (AID 588683)
Sequence of Keap1/Nrf2 (Q16236 whole entry): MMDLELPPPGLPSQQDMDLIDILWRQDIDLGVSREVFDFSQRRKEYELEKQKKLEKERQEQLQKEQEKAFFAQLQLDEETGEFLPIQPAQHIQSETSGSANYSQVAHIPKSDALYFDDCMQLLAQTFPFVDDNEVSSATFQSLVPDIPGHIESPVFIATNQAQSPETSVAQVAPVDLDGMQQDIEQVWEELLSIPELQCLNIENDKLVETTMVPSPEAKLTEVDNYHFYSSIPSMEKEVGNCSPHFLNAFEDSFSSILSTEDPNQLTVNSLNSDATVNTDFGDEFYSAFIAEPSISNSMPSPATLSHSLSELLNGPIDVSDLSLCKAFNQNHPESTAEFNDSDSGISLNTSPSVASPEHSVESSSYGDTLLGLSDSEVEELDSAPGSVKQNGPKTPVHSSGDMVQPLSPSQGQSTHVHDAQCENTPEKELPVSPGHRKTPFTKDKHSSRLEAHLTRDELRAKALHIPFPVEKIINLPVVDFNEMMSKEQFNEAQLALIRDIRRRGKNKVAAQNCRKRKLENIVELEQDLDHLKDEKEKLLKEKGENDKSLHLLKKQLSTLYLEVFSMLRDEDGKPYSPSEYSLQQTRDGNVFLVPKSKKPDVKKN
Sequence of Keap1/Nrf2 (Q14145 whole entry): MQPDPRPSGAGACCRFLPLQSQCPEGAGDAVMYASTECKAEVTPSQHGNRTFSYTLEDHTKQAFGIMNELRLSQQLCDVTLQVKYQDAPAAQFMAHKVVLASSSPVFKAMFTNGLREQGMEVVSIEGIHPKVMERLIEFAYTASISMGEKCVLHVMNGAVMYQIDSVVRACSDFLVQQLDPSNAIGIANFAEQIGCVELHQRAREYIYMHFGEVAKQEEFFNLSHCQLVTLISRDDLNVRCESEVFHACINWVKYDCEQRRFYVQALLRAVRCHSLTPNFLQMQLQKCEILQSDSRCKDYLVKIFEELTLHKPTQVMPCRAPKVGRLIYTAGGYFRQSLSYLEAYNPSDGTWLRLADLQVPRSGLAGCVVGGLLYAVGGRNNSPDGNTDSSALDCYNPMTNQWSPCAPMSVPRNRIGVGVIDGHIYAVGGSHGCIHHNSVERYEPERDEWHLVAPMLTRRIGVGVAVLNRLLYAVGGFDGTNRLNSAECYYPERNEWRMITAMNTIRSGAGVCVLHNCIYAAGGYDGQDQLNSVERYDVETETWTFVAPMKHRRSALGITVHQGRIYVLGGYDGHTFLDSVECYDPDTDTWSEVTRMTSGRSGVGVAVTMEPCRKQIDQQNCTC

[31] = target: Beta Lactamase (Pseudomonas aeruginosa, UniProt Q932Y6); assay: beta-lactamase reporter inhibitor potency, dose response, artefact control for TLR9-MyD88 binding inhibitor project, BLA reporter cells, FRET fluorescence (AID 588341); type: cell-based;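 further: cell based assay in CHO-K1 cells stably expressing beta-lactamase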
Sequence of Beta Lactamase (Q932Y6 whole entry): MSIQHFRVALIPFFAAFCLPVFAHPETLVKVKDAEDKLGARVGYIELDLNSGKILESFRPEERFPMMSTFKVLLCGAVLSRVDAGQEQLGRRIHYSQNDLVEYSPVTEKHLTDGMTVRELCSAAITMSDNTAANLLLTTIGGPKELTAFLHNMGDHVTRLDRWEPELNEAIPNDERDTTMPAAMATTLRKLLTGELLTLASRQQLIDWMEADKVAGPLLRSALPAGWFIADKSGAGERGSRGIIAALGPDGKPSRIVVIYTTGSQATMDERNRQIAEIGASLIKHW

[32] = target: T3, Endoribonuclease toxin MazF; assay: fluorescent RNA oligo signal without MazF, dose response, counter-screen for MazEF activator project, biochemical, fluorescence, single-stranded RNase substrate (AID 588502); type: functional
[33] = target: T4, Corticotropin-releasing factor receptor 2/Corticotropin-releasing factor-binding protein (Homo sapiens, UniProt P24387+Q13324); assay: activators of CRF receptor 2 with binding protein – uHTS hits, confirmation (AID 602473); type: functional; conditions: read-out: EC50_Mean
T4 sequence (Q13324 whole entry): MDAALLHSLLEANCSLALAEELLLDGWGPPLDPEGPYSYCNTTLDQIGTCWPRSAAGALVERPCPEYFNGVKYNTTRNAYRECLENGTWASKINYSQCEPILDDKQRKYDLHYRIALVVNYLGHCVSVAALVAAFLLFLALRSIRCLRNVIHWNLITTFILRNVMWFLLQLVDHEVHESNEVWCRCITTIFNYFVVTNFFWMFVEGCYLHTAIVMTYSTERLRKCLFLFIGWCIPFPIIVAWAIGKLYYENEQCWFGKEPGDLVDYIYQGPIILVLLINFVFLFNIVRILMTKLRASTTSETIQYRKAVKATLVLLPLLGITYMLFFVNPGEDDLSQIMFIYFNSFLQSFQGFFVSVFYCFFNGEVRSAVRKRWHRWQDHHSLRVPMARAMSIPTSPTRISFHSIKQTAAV
T4 sequence (P24387 whole entry): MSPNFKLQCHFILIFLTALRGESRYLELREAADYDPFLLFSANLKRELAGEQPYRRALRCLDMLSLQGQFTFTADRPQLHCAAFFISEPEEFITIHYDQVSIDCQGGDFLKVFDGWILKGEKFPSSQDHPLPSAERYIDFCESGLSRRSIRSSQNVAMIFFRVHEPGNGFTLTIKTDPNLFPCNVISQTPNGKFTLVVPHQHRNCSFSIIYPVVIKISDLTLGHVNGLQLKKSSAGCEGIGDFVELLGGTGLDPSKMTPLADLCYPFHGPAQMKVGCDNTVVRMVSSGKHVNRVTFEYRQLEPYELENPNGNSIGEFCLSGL

In the case of CCCC(=O)NC(c1ccc(C)cc1)c1ccc2cccnc2c1O (centres undefined), the EC50 [1] is reported as 23.6 µM (inconclusive), the EC50 [2] is reported as 6.65 µM (active) and the EC50 [3] is reported as 6.34 µM (active). The EC50 [4] was > 150 µM (not active), the EC50 [5] was 0.449 µM (active) and the EC50 [6] was 0.348 µM (active). The IC50 [7] was 1.47 µM (active), the EC50 [8] was > 350 µM (not active) and the EC50 [9] was > 180 µM (inactive). For the same molecule, the EC50 [10] was 0.588 µM (active), the EC50 [11] was 14.7 µM (active) and the IC50 [12] was > 119 µM (inactive). The IC50 [13] was > 80 µM (inactive), the IC50 [14] was > 119 µM (inactive) and the AC50 [15] was 4.94 µM (active). The AC50 [16] was 3.35 µM (active), the IC50 ([17]; Homo sapiens, HEK293) was 8.08 µM (active) and the IC50 ([17]; hek293) was 5.93 µM (active). For the same molecule, the IC50 [18] was 2.52 µM (active), the IC50 [19] was 3.79 µM (active) and the IC50 [20] was 6.36 µM (active). For the same molecule, the AC50 [21] was 0.535 µM (active), the IC50 [22] was 6.94 µM (active) and the EC50 [23] was > 150 µM (inactive).

For CCn1nc(-c2ccccc2)c2nc3ccccc3nc21, the IC50 [24] was 5.45 µM (active), the AC50 [25] was 96.5 µM (active) and the AC50 [26] was 30.9 µM (active). The EC50 [27] was 5.55 µM (active), the IC50 [28] was > 49.7 µM (inactive) and the EC50 [29] was > 99 µM (inactive). The AC50 [30] was 39.5 µM (active), the IC50 [31] was 5.36 µM (active) and the EC50 [32] was 84 µM (inactive). For the same molecule, the EC50 [33] was 6.66 µM (active).

— ChEMBL document CHEMBL1201862, “PubChem BioAssay data set” (2004)
